Literature values in paper PMC3923778 (PLoS Currents, 2014).

Tested on: HD mouse models
Set-up: method as in PMID 19281846, PMID 20923867, PMID 19291221, PMID 17184995
Settings: ref [5], [7], [14], [15]; cited from earlier work

| Compound | disease progression in HD mouse models |
| --- | --- |
| TP-10 | significantly delay disease progression |
| COc1ccc(C2CNC(=O)C2)cc1OC1CCCC1 (centres unmarked) [rolipram] | significantly delay disease progression |
